Assays:
Phosphodiesterase 1 = Phosphodiesterase 1 (Homo sapiens, UniProt P54750+Q01064+Q14123); test: Inhibitory concentration against Phosphodiesterase type 1; assay type: protein assay
[1] = target: cGMP-specific 3',5'-cyclic phosphodiesterase (Homo sapiens, UniProt O76074); test: Inhibitory concentration against Phosphodiesterase type 5
Rattus norvegicus = species: Rattus norvegicus; test: Effective concentration required for vasodilatory effect in isolated vessel of rat; assay type: functional
Phosphodiesterase 3 = Phosphodiesterase 3 (Homo sapiens, UniProt Q14432+Q13370); test: Inhibitory concentration against Phosphodiesterase type 3; assay type: protein assay

Row | IC50 (Phosphodiesterase 1) [µM] | IC50 [1] [µM] | EC50 (Rattus norvegicus) [µM] | IC50 (Phosphodiesterase 3) [µM] | Compound
1 |  | 3.1 |  |  | CCc1cc(C(C)=O)c(O)cc1OCc1cccc(C(=O)Nc2ccc(OCC(=O)O)cc2)n1
2 | 4.52 | 0.04 |  |  | Cc1sc(NC(=O)c2cccc(COc3ccccc3)n2)nc1CC(=O)NO
3 |  | 5.15 |  |  | CCc1cc(C(C)=O)c(O)cc1OCc1cccc(C(=O)Nc2nn[nH]n2)n1
4 |  | 8.62 |  |  | CCc1cc(C(C)=O)c(O)cc1OCc1cccc(C(=O)NC(CO)C(=O)OCc2ccccc2)n1 (stereo not given)
5 |  | 3.28 |  |  | CCCCCCCC(=O)OCC(NC(=O)c1cccc(COc2cc(O)c(C(C)=O)cc2CC)n1)C(=O)O (stereo not given)
6 |  | 2.13 |  |  | CCc1cc(C(C)=O)c(O)cc1OCc1cccc(C(=O)NC(C)C(=O)OC)c1 (stereo not given)
7 |  | 6.07 |  |  | CCc1cc(C(C)=O)c(O)cc1OCc1cccc(C(=O)NC(O)CC(=O)OC)n1 (stereo not given)
8 |  | 0.65 |  |  | CCOC(=O)CC(NC(=O)c1cccc(COc2cc(O)c(C(C)=O)cc2CC)c1)C(=O)OCC (stereo not given)
9 |  | 3.35 |  |  | CCc1cc(C(C)=O)c(O)cc1OCc1cccc(C(=O)NC(C(=O)OC)C(C)O)n1 (stereo not given)
10 |  | 1.24 |  |  | CCc1cc(C(C)=O)c(O)cc1OCc1cccc(C(=O)NC(C(=O)O)C(C)C)n1 (stereo not given)
11 | > 10 | 6.25 |  |  | CC(C)CC(C(=O)O)c1csc(NC(=O)c2cccc(COc3ccccc3)n2)n1 (stereo not given)
12 |  | 0.68 |  |  | CCc1cc(C(C)=O)c(O)cc1OCc1cccc(C(=O)NC(CO)C(=O)O)c1 (stereo not given)
13 |  | 1.45 |  |  | CCc1cc(C(C)=O)c(O)cc1OCc1cccc(C(=O)NC(CC(=O)O)c2ccccc2)n1 (stereo not given)
14 |  | 7.65 |  |  | CCc1cc(C(C)=O)c(O)cc1OCc1cccc(C(=O)NCCCCCC(=O)O)n1
15 |  | 0.63 |  |  | CCc1cc(C(C)=O)c(O)cc1OCc1cccc(C(=O)Nc2nc(CC(=O)O)cs2)c1
16 |  | 0.27 |  |  | CCc1cc(C(C)=O)c(O)cc1OCc1cccc(C(=O)NCCC(=O)O)n1
17 |  | 0.46 |  |  | CCc1cc(C(C)=O)c(O)cc1OCc1cccc(C(=O)N[C@@H](C)C(=O)O)n1
18 |  | 0.92 |  |  | CCc1cc(C(C)=O)c(O)cc1OCc1cccc(C(=O)NCC(=O)O)c1
19 |  | 1.03 |  |  | CCc1cc(C(C)=O)c(O)cc1OCc1cccc(C(=O)N[C@H](C)C(=O)O)n1

Row | IC50 (Phosphodiesterase 1) [µM] | IC50 [1] [µM] | EC50 (Rattus norvegicus) [µM] | IC50 (Phosphodiesterase 3) [µM] | Compound
20 | > 10 | 2.2 |  |  | O=C(NO)C(=O)c1csc(NC(=O)c2cccc(COc3ccccc3)n2)n1
21 | 3.94 | 0.62 |  |  | CC(C)CC(C(=O)NO)c1csc(NC(=O)c2cccc(COc3ccccc3)n2)n1 (stereo not given)
22 |  | 3.19 |  |  | CCc1cc(C(C)=O)c(O)cc1OCc1cccc(C(=O)NCC(O)c2ccc(O)cc2)n1 (stereo not given)
23 |  | 8.91 |  |  | CCc1cc(C(C)=O)c(O)cc1OCc1cccc(C(=O)NC(CO)(CO)CO)n1
24 |  | 6.68 |  |  | CCC(=O)OCC(NC(=O)c1cccc(COc2cc(O)c(C(C)=O)cc2CC)n1)C(=O)O (stereo not given)
25 |  | 3.68 |  |  | CCc1cc(C(C)=O)c(O)cc1OCc1cccc(C(=O)NC(Cc2ccc(O)cc2)C(=O)O)n1 (stereo not given)
26 |  | 7.82 |  |  | CCc1cc(C(C)=O)c(O)cc1OCc1cccc(C(=O)NC2COC(=O)C2)n1 (stereo not given)
27 |  | 2.64 |  |  | CCc1cc(C(C)=O)c(O)cc1OCc1cccc(C(=O)NC(CO)CCC(=O)OC)n1 (stereo not given)
28 |  | 3.3 |  |  | CCc1cc(C(C)=O)c(O)cc1OCc1cccc(C(=O)N(CCCCCCCCC(N)=O)C(C)CC)n1 (stereo not given)
29 | > 10 | 3.5 |  |  | COc1ccc(NC(=O)c2cccc(COc3ccccc3)n2)cc1C(=O)NO
30 |  | 0.13 |  |  | CCc1cc(C(C)=O)c(O)cc1OCc1cccc(C(=O)NC(C)C(=O)O)c1 (stereo not given)
31 |  | 3.1 |  |  | CCc1cc(C(C)=O)c(O)cc1OCc1cccc(C(=O)NC(CO)CC(=O)OC)n1 (stereo not given)
32 |  | 1.21 |  |  | CCc1cc(C(C)=O)c(O)cc1OCc1cccc(C(=O)N(CC)CCCCCCCCC(N)=O)n1
33 |  | 9.46 |  |  | CCc1cc(C(C)=O)c(O)cc1OCc1cccc(C(=O)NC(CO)CC(=O)O)n1 (stereo not given)
34 |  | 0.87 |  |  | C=CCN(CCC(=O)O)C(=O)c1cccc(COc2cc(O)c(C(C)=O)cc2CC)n1
35 |  | 9.07 |  |  | CCc1cc(C(C)=O)c(O)cc1OCc1cccc(C(=O)NC(Cc2cnc[nH]2)C(=O)OC)n1 (stereo not given)
36 |  | 0.35 |  |  | CCc1cc(C(C)=O)c(O)cc1OCc1cccc(C(=O)NC(C)C(=O)NO)n1 (stereo not given)
37 | 0.087 | 0.026 | 0.9 | 1.3 | CCc1cc(C(C)=O)c(O)cc1OCc1cccc(C(=O)Nc2nc(CC(=O)NO)cs2)n1
38 | 3.9 | 2.42 |  |  | CC(C)C(C(=O)NO)c1csc(NC(=O)c2cccc(COc3ccccc3)n2)n1 (stereo not given)

Second part, the compound before the results:

Row | Compound | IC50 (Phosphodiesterase 1) [µM] | IC50 [1] [µM] | EC50 (Rattus norvegicus) [µM] | IC50 (Phosphodiesterase 3) [µM]
39 | CCCCC(C(=O)O)c1csc(NC(=O)c2cccc(COc3ccccc3)n2)n1 (stereo not given) | > 10 | 6.49 |  | 
40 | O=C(O)CCC(CCC(=O)O)(C(=O)O)c1csc(NC(=O)c2cccc(COc3ccccc3)n2)n1 | > 10 | 9.28 |  | 
41 | O=C(Cc1cccc(NC(=O)c2cccc(COc3ccccc3)n2)c1)NO | 2.41 | 0.013 |  | 
42 | O=C(Cc1csc(NC(=O)c2ccccc2F)n1)NO | > 10 | 7.56 |  | 
43 | O=C(Cc1csc(NC(=O)COc2ccccc2)n1)NO | > 10 | 5.62 |  | 
44 | O=C(Cc1cccc(NC(=O)c2cccc(COc3ccccc3)n2)n1)NO | > 10 | 0.04 |  | 
45 | CCCCCCCCCCCC(=O)Nc1nc(CC(=O)NO)cs1 | > 10 | 1.8 |  | 
46 | O=C(Cc1csc(NC(=O)c2cccc(COc3ccccc3)n2)n1)NO | 0.92 | 0.19 | 3.9 | > 10
47 | COc1ccc2c(c1)c(CC(=O)Nc1nc(CC(=O)NO)cs1)c(C)n2C(=O)c1ccc(Cl)cc1 | 2.8 | 1.28 |  | 
48 | COc1ccc2c(c1)OC(=O)CC2CC(=O)Nc1nc(CC(=O)NO)cs1 (stereo not given) | > 10 | 5.99 |  | 
49 | CCCCCCC(C(=O)NO)c1csc(NC(=O)c2cccc(COc3ccccc3)n2)n1 (stereo not given) | 5.7 | 0.23 |  | 
50 | Cc1cc(C)cc(C(=O)Nc2nc(CC(=O)NO)cs2)c1 | > 10 | 1.83 |  | 
51 | O=C(Cc1csc(NC(=O)Cc2cccc(C(F)(F)F)c2)n1)NO | > 10 | 2.07 |  | 
52 | CN(C)c1cccc(C(=O)Nc2nc(CC(=O)NO)cs2)c1 | > 10 | 5.47 |  | 
53 | O=C(Nc1nc(C2(C(=O)O)CC2)cs1)c1cccc(COc2ccccc2)n1 | > 10 | 8.58 |  | 
54 | O=C(Cc1csc(NC(=O)c2cnc3ccccc3n2)n1)NO | > 10 | 1.84 |  | 
55 | O=C(Nc1nc(C(Cc2ccccc2)C(=O)NO)cs1)c1cccc(COc2ccccc2)n1 (stereo not given) | 1.36 | 0.83 |  | 
56 | COc1ccc2c(c1)C(CC(=O)Nc1nc(CC(=O)NO)cs1)CC2=O (stereo not given) | > 10 | 3.16 |  | 
57 | CCC(C(=O)Nc1nc(CC(=O)NO)cs1)c1ccccc1 (stereo not given) | > 10 | 6.19 |  | 
58 | O=C(Cc1csc(NC(=O)C2C=CN(c3ccccc3)c3ccccc32)n1)NO (stereo not given) | 0.38 | 0.79 |  | 
59 | CCCCC(C(=O)NO)c1csc(NC(=O)c2cccc(COc3ccccc3)n2)n1 (stereo not given) | 0.2 | 0.27 |  | 
60 | COc1cc(OC)c(OC)c(C(=O)Nc2nc(CC(=O)NO)cs2)c1 | > 10 | 2.58 |  | 
61 | CCCCCCC(C(=O)O)c1csc(NC(=O)c2cccc(COc3ccccc3)n2)n1 (stereo not given) | > 10 | 4.58 |  | 
62 | O=C(Cc1csc(NC(=O)CCCCCc2ccccc2)n1)NO | 4.5 | 1.9 |  | 

Row | Compound | IC50 (Phosphodiesterase 1) [µM] | IC50 [1] [µM] | EC50 (Rattus norvegicus) [µM] | IC50 (Phosphodiesterase 3) [µM]
63 | O=C(Cc1csc(NC(=O)c2ccc(Cl)cc2Cl)n1)NO | > 10 | 4.25 |  | 
64 | O=C(O)CCC(C(=O)O)c1csc(NC(=O)c2cccc(COc3ccccc3)n2)n1 (stereo not given) | > 10 | 10 |  | 
65 | O=C(Cc1csc(NC(=O)c2ccccc2)n1)NO | > 10 | 3.25 |  | 
66 | O=C(Cc1csc(NC(=O)c2cnccc2Oc2ccc(Cl)cc2)n1)NO | 2.67 | 0.32 |  | 
67 | O=C(Cc1csc(NC(=O)Nc2cccc3ccccc23)n1)NO | > 10 | 3.81 |  | 
68 | O=C(Cc1csc(NC(=O)c2ccccn2)n1)NO | 7.1 | 3.2 |  | 
69 | O=C(Cc1csc(NC(=O)c2cccc(C(=O)c3ccccc3)c2)n1)NO | 1.72 | 3.41 |  | 
70 | O=C(Nc1nc(C2(C(=O)NO)CC2)cs1)c1cccc(COc2ccccc2)n1 | 0.63 | 0.89 |  | 
71 | O=C(Nc1nc(C(Cc2ccccc2)C(=O)O)cs1)c1cccc(COc2ccccc2)n1 (stereo not given) | > 10 | 10 |  | 
72 | Cc1nc(NC(=O)c2cccc(COc3ccccc3)n2)sc1C(=O)O | 4.48 | 4.99 |  | 
73 | O=C(Nc1nc(C2(C(=O)O)CCOCC2)cs1)c1cccc(COc2ccccc2)n1 | > 10 | 10 |  | 
74 | Cc1nc(NC(=O)c2cccc(COc3ccccc3)n2)sc1C(=O)NO | > 10 | 0.77 |  | 
75 | O=C(Nc1nc(C2(C(=O)NO)CCOCC2)cs1)c1cccc(COc2ccccc2)n1 | 2.93 | 2.49 |  | 
76 | O=C(O)Cc1cccc(NC(=O)c2cccc(COc3ccccc3)n2)c1 | > 10 | 10 |  | 
77 | Cc1c(NC(=O)c2cccc(COc3ccccc3)n2)cccc1C(=O)NO | > 10 | 2.66 |  | 
78 | O=C(Cc1csc(NC(=O)c2cccc(SC(F)(F)F)c2)n1)NO | 1.72 | 0.43 |  | 
79 | O=C(Cc1csc(NC(=O)c2ccc3ccccc3n2)n1)NO | 8 | 0.14 |  | 
80 | O=C(Cc1csc(NC(=O)CCC(=O)c2ccccc2)n1)NO | > 10 | 4.52 |  | 
81 | O=C(Cc1csc(NC(=O)COc2ccc(Cl)cc2)n1)NO | 1.81 | 1.69 |  | 
82 | O=C(NO)c1cccc(NC(=O)c2cccc(COc3ccccc3)n2)n1 | > 10 | 1.47 |  | 
83 | CC(C)(C(=O)NO)c1csc(NC(=O)c2cccc(COc3ccccc3)n2)n1 | 0.67 | 0.52 |  | 
84 | Cc1cccc(C(=O)Nc2nc(CC(=O)NO)cs2)c1Br | 3.87 | 8.43 |  | 
85 | O=C(Cc1csc(NC(=O)c2cccc3ccccc23)n1)NO | 1 | 1.1 |  | 
86 | O=C(O)Cc1cccc(NC(=O)c2cccc(COc3ccccc3)n2)n1 | > 10 | 9.43 |  | 

— ChEMBL document CHEMBL1140357, “Discovery of hydroxamic acid analogs as dual inhibitors of phosphodiesterase-1 and -5” (Bioorg Med Chem Lett, 2005)
